Data as given in patent US8541588B2, “Sulfonamide derivatives” (Pfizer Limited, priority 2009, dated 2013).

Target: T1, Nav1.7 (or SCN9A) channel; HEK cells stably transfected with hSCN9A (Homo sapiens, UniProt Q15858)
T1 construct: expressed in transfected cells
Assay: Nav1.7 block, PatchXpress 7000 automated whole-cell voltage clamp, estimated IC50 (EIC50)
Assay type: cell-based
Details: estimated IC50; hSCN9A HEK cells, PatchXpress platform; Examples 283-814

T1 sequence (Q15858 whole entry): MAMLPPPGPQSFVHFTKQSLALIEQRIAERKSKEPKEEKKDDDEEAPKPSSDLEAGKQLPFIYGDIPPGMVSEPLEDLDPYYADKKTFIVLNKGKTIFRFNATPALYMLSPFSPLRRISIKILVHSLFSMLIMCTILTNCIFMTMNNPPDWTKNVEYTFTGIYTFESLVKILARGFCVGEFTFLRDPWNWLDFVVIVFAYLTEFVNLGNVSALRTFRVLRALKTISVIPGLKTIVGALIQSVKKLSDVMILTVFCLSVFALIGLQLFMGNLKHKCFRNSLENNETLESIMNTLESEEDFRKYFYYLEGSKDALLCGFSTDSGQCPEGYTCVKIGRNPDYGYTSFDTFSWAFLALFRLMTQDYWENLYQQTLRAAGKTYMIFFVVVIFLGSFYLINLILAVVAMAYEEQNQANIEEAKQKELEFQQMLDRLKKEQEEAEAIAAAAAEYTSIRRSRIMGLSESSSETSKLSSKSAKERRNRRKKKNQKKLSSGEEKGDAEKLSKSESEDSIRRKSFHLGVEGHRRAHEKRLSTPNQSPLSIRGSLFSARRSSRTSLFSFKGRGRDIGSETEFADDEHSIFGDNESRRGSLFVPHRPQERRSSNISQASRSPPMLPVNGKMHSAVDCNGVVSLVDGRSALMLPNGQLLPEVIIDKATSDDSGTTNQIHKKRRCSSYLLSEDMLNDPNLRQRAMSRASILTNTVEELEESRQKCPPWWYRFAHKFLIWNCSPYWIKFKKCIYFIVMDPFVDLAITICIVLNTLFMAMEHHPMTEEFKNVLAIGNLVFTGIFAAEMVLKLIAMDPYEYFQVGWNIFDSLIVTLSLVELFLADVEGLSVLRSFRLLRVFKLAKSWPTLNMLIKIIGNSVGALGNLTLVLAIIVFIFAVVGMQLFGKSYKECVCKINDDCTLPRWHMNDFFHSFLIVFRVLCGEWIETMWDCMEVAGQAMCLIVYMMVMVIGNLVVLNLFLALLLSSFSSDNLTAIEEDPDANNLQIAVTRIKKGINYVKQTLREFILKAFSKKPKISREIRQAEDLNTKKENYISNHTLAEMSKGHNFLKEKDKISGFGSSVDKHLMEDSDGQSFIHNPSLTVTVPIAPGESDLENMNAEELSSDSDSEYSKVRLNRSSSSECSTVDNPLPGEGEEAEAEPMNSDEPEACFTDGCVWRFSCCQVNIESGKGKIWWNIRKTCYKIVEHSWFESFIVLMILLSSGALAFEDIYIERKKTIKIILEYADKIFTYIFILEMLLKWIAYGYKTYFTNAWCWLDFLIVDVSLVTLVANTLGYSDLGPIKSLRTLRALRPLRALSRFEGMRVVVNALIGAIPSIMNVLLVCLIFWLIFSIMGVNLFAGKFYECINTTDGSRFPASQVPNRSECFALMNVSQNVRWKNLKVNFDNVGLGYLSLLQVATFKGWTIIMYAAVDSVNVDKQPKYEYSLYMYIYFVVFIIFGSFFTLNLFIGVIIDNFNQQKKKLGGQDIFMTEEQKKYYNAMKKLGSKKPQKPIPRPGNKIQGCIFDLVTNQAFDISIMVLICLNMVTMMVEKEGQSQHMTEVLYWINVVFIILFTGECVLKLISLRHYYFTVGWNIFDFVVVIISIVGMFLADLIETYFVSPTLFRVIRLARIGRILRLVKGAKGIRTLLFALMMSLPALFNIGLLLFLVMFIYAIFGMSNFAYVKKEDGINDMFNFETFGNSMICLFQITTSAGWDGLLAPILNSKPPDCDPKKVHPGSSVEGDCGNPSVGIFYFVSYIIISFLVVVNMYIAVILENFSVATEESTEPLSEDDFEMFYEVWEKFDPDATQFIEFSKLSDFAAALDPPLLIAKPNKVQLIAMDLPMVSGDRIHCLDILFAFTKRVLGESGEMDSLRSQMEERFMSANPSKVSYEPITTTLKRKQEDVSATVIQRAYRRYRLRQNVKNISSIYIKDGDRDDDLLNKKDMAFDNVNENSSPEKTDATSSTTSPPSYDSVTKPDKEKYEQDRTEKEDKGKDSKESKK

IC50 [nM]	SMILES
2100	N#Cc1cc(S(=O)(=O)Nc2nccs2)ccc1Oc1ccc(-n2ccc(C(F)(F)F)n2)nc1 [Example 643, 3-cyano-N-1,3-thiazol-2-yl-4-({6-[3-(trifluoromethyl)-1H-pyrazol-1-yl]pyridin-3-yl}oxy)benzenesulfonamide]
2600	N#Cc1cc(S(=O)(=O)Nc2nccs2)ccc1Oc1ccc(Oc2ccccc2)nc1 [Example 644, 3-cyano-4-[(6-phenoxypyridin-3-yl)oxy]-N-1,3-thiazol-2-ylbenzenesulfonamide]
>1000	Cn1nccc1-c1ccc(Oc2ccc(S(=O)(=O)Nc3nccs3)cc2C#N)cn1 [Example 645, 3-cyano-4-{[6-(1-methyl-1H-pyrazol-5-yl)pyridin-3-yl]oxy}-N-1,3-thiazol-2-ylbenzenesulfonamide]
2800	N#Cc1cc(S(=O)(=O)Nc2nccs2)ccc1Oc1ccc(-c2ccccc2)nc1 [Example 646, 3-cyano-4-[(6-phenylpyridin-3-yl)oxy]-N-1,3-thiazol-2-ylbenzenesulfonamide]
2900	Cn1nc(C(F)(F)F)cc1-c1ccc(Oc2ccc(S(=O)(=O)Nc3nccs3)cc2C#N)cn1 [Example 647, 3-cyano-4-({6-[1-methyl-3-(trifluoromethyl)-1H-pyrazol-5-yl]pyridin-3-yl}oxy)-N-1,3-thiazol-2-ylbenzenesulfonamide]
1600	Cn1nccc1-c1cc(Oc2ccc(S(=O)(=O)Nc3nccs3)cc2C#N)ccc1Cl [Example 648, 4-[4-chloro-3-(1-methyl-1H-pyrazol-5-yl)phenoxy]-3-cyano-N-1,3-thiazol-2-ylbenzenesulfonamide]
1600	Cc1cc(C(F)(F)F)nn1-c1cccc(Oc2ccc(S(=O)(=O)Nc3nccs3)cc2C#N)c1 [Example 650, 3-cyano-4-{3-[5-methyl-3-(trifluoromethyl)-1H-pyrazol-1-yl]phenoxy}-N-1,3-thiazol-2-ylbenzenesulfonamide]
1000	Cn1ccnc1-c1cc(Cl)ccc1Oc1ccc(S(=O)(=O)Nc2nccs2)cc1C#N [Example 651, 4-[4-chloro-2-(1-methyl-1H-imidazol-2-yl)phenoxy]-3-cyano-N-1,3-thiazol-2-ylbenzenesulfonamide]
900	N#Cc1cc(S(=O)(=O)Nc2nccs2)ccc1Oc1ccc(Cl)cc1-c1cnccn1 [Example 652, 4-(4-chloro-2-pyrazin-2-ylphenoxy)-3-cyano-N-1,3-thiazol-2-ylbenzenesulfonamide]
1100	Cn1nc(C(F)(F)F)cc1-c1cc(F)cc(Oc2ccc(S(=O)(=O)Nc3nccs3)cc2C#N)c1 [Example 653, 3-cyano-4-{3-fluoro-5-[1-methyl-3-(trifluoromethyl)-1H-pyrazol-5-yl]phenoxy}-N-1,3-thiazol-2-ylbenzenesulfonamide]
1100	COCc1cc(C(F)F)nn1-c1cccc(Oc2ccc(S(=O)(=O)Nc3nccs3)cc2C#N)c1 [Example 654, 3-cyano-4-{3-[3-(difluoromethyl)-5-(methoxymethyl)-1H-pyrazol-1-yl]phenoxy}-N-1,3-thiazol-2-ylbenzenesulfonamide]
49	O=S(=O)(Nc1cscn1)c1cc(Cl)c(Oc2ccc(Cl)cc2C2CCNCC2)cc1F [Example 655, 5-chloro-4-(4-chloro-2-piperidin-4-ylphenoxy)-2-fluoro-N-1,3-thiazol-4-ylbenzenesulfonamide]
270	Cn1nccc1-c1nc(C(F)(F)F)ccc1Oc1cc(F)c(S(=O)(=O)Nc2cscn2)cc1Cl [Example 656, 5-chloro-2-fluoro-4-{[2-(1-methyl-1H-pyrazol-5-yl)-6-(trifluoromethyl)pyridin-3-yl]oxy}-N-1,3-thiazol-4-ylbenzenesulfonamide]
83	Cn1nccc1-c1cc(F)ccc1Oc1cc(F)c(S(=O)(=O)Nc2cscn2)cc1Cl [Example 657, 5-chloro-2-fluoro-4-[4-fluoro-2-(1-methyl-1H-pyrazol-5-yl)phenoxy]-N-1,3-thiazol-4-ylbenzenesulfonamide]
250	O=S(=O)(Nc1cscn1)c1cc(Cl)c(Oc2ccc(F)cc2-c2ccn[nH]2)cc1F [Example 658, 5-chloro-2-fluoro-4-[4-fluoro-2-(1H-pyrazol-5-yl)phenoxy]-N-1,3-thiazol-4-ylbenzenesulfonamide]
91	O=S(=O)(Nc1cscn1)c1cc(Cl)c(Oc2ccc(C(F)(F)F)cc2-c2cn[nH]c2)cc1F [Example 659, 5-chloro-2-fluoro-4-[2-(1H-pyrazol-4-yl)-4-(trifluoromethyl)phenoxy]-N-1,3-thiazol-4-ylbenzenesulfonamide]
77	O=S(=O)(Nc1cscn1)c1cc(Cl)c(Oc2ccc(Cl)cc2-c2cn[nH]c2)cc1F [Example 661, 5-chloro-4-[4-chloro-2-(1H-pyrazol-4-yl)phenoxy]-2-fluoro-N-1,3-thiazol-4-ylbenzenesulfonamide]
33	Cc1n[nH]cc1-c1cc(Cl)ccc1Oc1cc(F)c(S(=O)(=O)Nc2cscn2)cc1Cl [Example 662, 5-chloro-4-[4-chloro-2-(3-methyl-1H-pyrazol-4-yl)phenoxy]-2-fluoro-N-1,3-thiazol-4-ylbenzenesulfonamide]

IC50 [nM]	SMILES
130	O=S(=O)(Nc1cscn1)c1cc(Cl)c(Oc2cc(C(F)(F)F)ccc2-c2cccc(CO)c2)cc1F [Example 663, 5-chloro-2-fluoro-4-{[3′-(hydroxymethyl)-4-(trifluoromethyl)biphenyl-2-yl]oxy}-N-1,3-thiazol-4-ylbenzenesulfonamide]
>1000	N#Cc1cc(S(=O)(=O)Nc2ncns2)ccc1Oc1ccc(-c2nc(CO)co2)cc1 [Example 665, 3-Cyano-4-{4-[4-(hydroxymethyl)-1,3-oxazol-2-yl]phenoxy}-N-1,2,4-thiadiazol-5-ylbenzenesulfonamide]
270	O=S(=O)(Nc1ccc(F)cn1)c1cc(F)c(Oc2ccc(C(F)(F)F)cc2C2CCNCC2)cc1F [Example 666, 2,5-Difluoro-N-(5-fluoropyridin-2-yl)-4-[2-piperidin-4-yl-4-(trifluoromethyl)phenoxy]benzenesulfonamide]
3100	Cn1nccc1-c1cc(Cl)ccc1Oc1ccc(S(=O)(=O)Nc2ncc(F)cc2F)cc1F [Example 667, 4-[4-chloro-2-(1-methyl-1H-pyrazol-5-yl)phenoxy]-N-(3,5-difluoropyridin-2-yl)-3-fluorobenzenesulfonamide]
53	Cn1nccc1-c1cc(Cl)ccc1Oc1ccc(S(=O)(=O)Nc2ccncn2)cc1Cl [Example 668, 3-Chloro-4-[4-chloro-2-(1-methyl-1H-pyrazol-5-yl)phenoxy]-N-pyrimidin-4-ylbenzenesulfonamide]
200	Cn1nccc1-c1cc(F)ccc1Oc1ccc(S(=O)(=O)Nc2ccncn2)cc1Cl [Example 669, 3-Chloro-4-[4-fluoro-2-(1-methyl-1H-pyrazol-5-yl)phenoxy]-N-pyrimidin-4-ylbenzenesulfonamide]
350	Cn1nccc1-c1cc(Cl)ccc1Oc1ccc(S(=O)(=O)Nc2ccncn2)cc1F [Example 670, 4-[4-Chloro-2-(1-methyl-1H-pyrazol-5-yl)phenoxy]-3-fluoro-N-pyrimidin-4-ylbenzenesulfonamide]
260	N#Cc1cc(S(=O)(=O)Nc2ncns2)ccc1Oc1ccc(C(F)(F)F)cc1-c1cnccn1 [Example 671, 3-cyano-4-[2-pyrazin-2-yl-4-(trifluoromethyl)phenoxy]-N-1,2,4-thiadiazol-5-ylbenzenesulfonamide]
2500	O=S(=O)(Nc1cscn1)c1ccc(Oc2ccc(Cl)cc2-c2cn[nH]c2)cc1 [Example 672, 4-[4-chloro-2-(1H-pyrazol-4-yl)phenoxy]-N-1,3-thiazol-4-ylbenzenesulfonamide]
690	O=S(=O)(Nc1cscn1)c1ccc(Oc2ccc(Cl)cc2-c2cn[nH]c2)c(Cl)c1 [Example 673, 3-chloro-4-[4-chloro-2-(1H-pyrazol-4-yl)phenoxy]-N-1,3-thiazol-4-ylbenzenesulfonamide]
88	O=S(=O)(Nc1ncc(F)s1)c1ccc(Oc2ccc(Cl)cc2-c2cn[nH]c2)c(F)c1 [Example 674, 4-[4-chloro-2-(1H-pyrazol-4-yl)phenoxy]-3-fluoro-N-(5-fluoro-1,3-thiazol-2-yl)benzenesulfonamide]
370	Cn1nccc1-c1cc(F)ccc1Oc1c(F)cc(S(=O)(=O)Nc2ncns2)cc1C#N [Example 675, 3-cyano-5-fluoro-4-[4-fluoro-2-(1-methyl-1H-pyrazol-5-yl)phenoxy]-N-1,2,4-thiadiazol-5-ylbenzenesulfonamide]
190	N#Cc1cc(S(=O)(=O)Nc2ncns2)cc(F)c1Oc1ccc(Cl)cc1-c1cn[nH]c1 [Example 676, 4-[4-chloro-2-(1H-pyrazol-4-yl)phenoxy]-3-cyano-5-fluoro-N-1,2,4-thiadiazol-5-ylbenzenesulfonamide]
12	O=S(=O)(Nc1nccs1)c1cc(F)c(Oc2ccc(OC(F)(F)F)cc2-c2cn[nH]c2)cc1F [Example 677, 2,5-difluoro-4-[2-(1H-pyrazol-4-yl)-4-(trifluoromethoxy)phenoxy]-N-1,3-thiazol-2-ylbenzenesulfonamide]
260	Cn1nc(C(F)(F)F)cc1-c1ccc(Oc2cc(F)c(S(=O)(=O)Nc3nccs3)cc2F)cc1 [Example 678, 2,5-difluoro-4-{4-[1-methyl-3-(trifluoromethyl)-1H-pyrazol-5-yl]phenoxy}-N-1,3-thiazol-2-ylbenzenesulfonamide]
31	O=S(=O)(Nc1nccs1)c1cc(F)c(Oc2ccc(Cl)cc2-c2cn[nH]c2)cc1F [Example 679, 4-[4-chloro-2-(1H-pyrazol-4-yl)phenoxy]-2,5-difluoro-N-1,3-thiazol-2-ylbenzenesulfonamide]
1000	O=S(=O)(Nc1cscn1)c1ccc(Oc2ccc(Cl)cc2-c2cn[nH]c2)cc1F [Example 680, 4-[4-chloro-2-(1H-pyrazol-4-yl)phenoxy]-2-fluoro-N-1,3-thiazol-4-ylbenzenesulfonamide]
1200	Cn1nccc1-c1cc(Cl)ccc1Oc1ccc(S(=O)(=O)Nc2cscn2)c(F)c1 [Example 681, 4-[4-chloro-2-(1-methyl-1H-pyrazol-5-yl)phenoxy]-2-fluoro-N-1,3-thiazol-4-ylbenzenesulfonamide]
